Columns and labels:
[1] = test system: cancer cell lines; conditions: wide variety of cancer cell lines, in vitro; cited from earlier work
[2] = test system: plasma methionine; assay: Plasma methionine depletion following intravenous injection of naked and PEGylated rMETase, with or without PLP pump; type: in vivo, Athymic nude (nu/nu) mice; conditions: for Max. Period of MET depletion below 5 μM, PLP+: with PLP supplementation from s.c. mini-osmotic pump; for Period of plasma methionine depletion below 5 μM relative to naked rMETase: fold longer than naked rMETase; for PLP dependence (ratio of plasma methionine PLP− versus PLP+): ratios at various time points, FIG. 8
Description: The methionine level in the plasma was measured by pre-column derivitization, followed by HPLC separation (Jones, B. N., and Gilligan, J. P., J. Chromatogr. (1983) 266:471-482). Briefly, 10 μl of plasma sample or methionine standard was precipitated with 30 μl of acetonitrile, followed by centrifugation at 10,000 rpm for 5 minutes. 10 μl of the supernatant was mixed with 5 μl of a fluoraldehyde derivative reagent, o-phthaldialdehyde, for 1 minute at room temperature, followed by addition of 150 μl of 0.1 M sodium acetate, pH 7.0. 20 μl of the reaction mixture was loaded on a reversed-phase Supelcosil™ LC-18DB column (25 cm×[…], particle size 5 μm (Supelco, Bellefonte, Pa., USA). The amino acid derivatives were separated by using a gradient elution of 40-60% solution B (Methanol) in solution A (tetrahydrofuran/methanol/0.1M sodium acetate. pH 7.2; 5/95/900) at a flow rate of 1.5 ml/minute. A fluorescence spectrophotometer was used for detection: excitation at 350 nm and emission at 450 nm. The plasma methionine was identified by the retention time of a methionine standard solution and quantitated according to a methionine standard curve.
(§1) Athymic nude (nu/nu) mice aged 4 weeks (20-25 g) were used for the study with 4 mice per group. Osmotic mini-pumps filled with 250 μl PLP (0.5 g/ml) were implanted subcutaneously. Twenty-four hours after pump implantation, 80 units of native rMETase or PEG-rMETase in 0.5 ml PBS, pH 7.4, were injected via the tail vein in mice with or without PLP pumps. 400 μl of blood was collected from the retroorbital plexus of each animal using heparinized capillary tubes. Blood was collected prior to injection, and 1, 2, 4, 8, 24, 48, 72, 96 and 120 hours post injection. The plasma was separated and stored in small aliquots at −80° C. The plasma enzyme activity, methionine concentration and PLP level in the plasma, collected at the different time points, were measured as described above.
(§2) 80 U of naked or PEGylated rMETase were injected i.v. in each mouse with or without PLP supplementation. Blood samples were collected at different time points and measured for enzyme activity and methionine concentration as described in the Materials and Methods. Plasma half-life was calculated from the plasma enzyme concentration-time profiles (FIG. 4). Maximum period of methionine depletion below 5 μM is calculated from the plasma methionine levels in FIGS. 5 and 7.
The mice were injected i.v. with 80 U of naked or the indicated PEGylated rMETase. Blood samples were collected at different time points and measured for plasma methionine concentration as described above.
In these experiments, 80 U of naked or PEGylated rMETase was injected intravenously in animals with and without PLP supplementation from implanted mini-osmotic pumps. Blood samples were taken at different time points and measured for plasma methionine concentration. […] The plasma methionine levels depleted by the three PEGylated rMETase conjugates were maintained below 2 μM for 48 hours and below 4 μM for 72 hours in case of PEG/rMETase 120 with PLP supplementation (Table 3). At 120 hours after injection of PEG/rMETase, the plasma methionine level depleted by PEG/rMETase 30, PEG/rMETase 60 and PEG/rMETase 120 still remained at 40%, 57% and 22% of normal baseline, respectively (Table 3).

[3] = Pharmacokinetics: plasma enzyme activity following intravenous injection of naked and PEGylated rMETase in mice; type: in vivo, Athymic nude (nu/nu) mice; conditions: for Plasma half-life in mice: 80 U i.v. per mouse, calculated from plasma enzyme activity-time profiles; for Plasma enzyme activity detectable until: 80 units per mouse i.v.
Description: rMETase activity was determined from α-ketobutyrate produced from L-methionine according to the method of Tanaka, H., et al., Biochemistry (1977) 16:100-106, with slight modification. 0.5 ml of sample diluted in 100 mM potassium phosphate buffer pH 8.0, containing 0.01% DTT, 1 mM EDTA Nae, 10 μM PLP and 0.05% Tween 80, was mixed with 0.5 ml of substrate solution containing 100 mM potassium phosphate buffer, pH 8.0, containing 25 mM L-methionine and 10 μM PLP in a glass test tube. The reaction mixture was vortexed immediately and incubated at 37° C. without shaking for precisely 10 minutes. The reaction was stopped by adding 0.5 ml of 50% TCA. The suspension was centrifuged at 13,000 rpm for 2 minutes. The supernatant (0.5 ml) was collected in a glass tube containing 1 ml 1 M acetate buffer, pH 5.0. Then, 0.4 ml MBTH solution containing 0.1% 3-methyl-2-benzothiazolinonehydrazone dihydrochloride monohydrate (Wako Pure Chemical, Osaka, Japan) was added to the tube, mixed well and incubated at 50° C. for 30 minutes. The absorbance of the reaction mixture was measured at 320 nm. The assay was carried out in triplicate. ΔE was calculated by subtracting the average absorbance of blanks from the average absorbance of the reaction mixture. The enzyme activity was calculated by the following equation: Activity (U/ml)=0.548 (1.07+2.2ΔE) ΔE. One unit of enzyme is defined as the amount of enzyme which produced 1 μM of α-ketobutyrate per minute at an infinite concentration of L-methionine.
as §1
The mice were injected intravenously with 80 U naked or the indicated PEGylated rMETase. Blood samples were collected at different time points and measured for plasma enzyme activity as described above.
as §2

[4] = test system: plasma anti-rMETase specific antibody; assay: Plasma anti-rMETase antibody titer by sandwich ELISA after immunization with FCA; type: in vivo, BALB/c male mice; conditions: mice immunized i.p. with 200 μg in FCA; figures in parentheses = numbers of mice
Description: BALB/c male mice were grouped randomly at 5 per group. Each mouse received three i.p. injections of 0.2 ml (200 μg) naked or PEG-rMETase emulsified in Freund's complete adjuvant (FCA) at weekly intervals. Two weeks following the last injection, a booster injection of the rMETase or PEG-rMETase was given to each mouse. Blood samples were collected two weeks after the booster injection, and plasma was separated and stored at −80° C.
Plasma anti-rMETase antibody was measured using a sandwich ELISA technique. 100 μl 200 μg/ml rMETase in 0.1 M carbonate coating buffer, pH 9.5, was added to each well of a 96-well microplate and incubated at 4° C. overnight. The plate was washed three times with PBS washing buffer, pH 7.4, containing 0.05% Tween-20, and blocked for 2 hours at room temperature with 200 μl of PBS assay buffer, pH 7.4, containing 10% FBS. After washing three times, 100 μl of 10-fold serial dilutions of the plasma samples in PBS assay buffer were added to appropriate wells and incubated for 2 hours at room temperature, followed by washing. 100 μl optimally diluted goat anti-mouse IgG and IgM subtypes conjugated with horseradish peroxidase (SIGMA, St. Louis, Mo., USA) were added to each well. The plate was incubated for 1 hour at room temperature and washed three times. 100 μl substrate solution containing O-phenylenediamine dihydrochloride (OPD) and hydrogen peroxide (SIGMA, St. Louis, Mo., USA) were added to each well, followed by 30 min incubation at room temperature. 50 μl 2N sulfuric acid were added to each well to stop the color reaction. The absorbance of each well was measured at 492 nm. The antibody titer was determined as the highest plasma dilution at which the extinction at 492 nm generated in the well of the immune plasma exceeded twice the extinction generated in those wells with negative control plasma.
IgG and IgM anti-rMETase antibody titers of the plasma of the mice immunized with naked or indicated PEGylated rMETase in the presence of FCA were determined using ELISA as described in the Materials and Methods. […]

[5] = literature comparison; cited from earlier work
[6] = 80 U i.v., without PLP supplementation
[7] = 80 U i.v., with PLP supplementation

Substance | IC50 in cancer cell lines compared to non-neoplastic cells [1] | Plasma methionine level reached within 1 hour ([2]; 80 U i.v., baseline 40 μM, without PLP supplementation) | Max. Period of MET depletion below 5 μM, PLP+ ([2]; 80 U i.v.) [h] | Max. Period of MET depletion below 5 μM, PLP− [2, 6] [h] | Plasma half-life in mice [3] [h] | Plasma methionine level at 120 hours after injection, of normal baseline [2, 7] [%] | Period of plasma methionine depletion below 5 μM relative to naked rMETase [2, 6] [fold] | Plasma anti-rMETase specific IgM antibody titer [4] | Plasma enzyme activity detectable until [3] [h] | PLP dependence (ratio of plasma methionine PLP− versus PLP+) [2] | Plasma methionine level maintained for 72 hours [2, 7] | Plasma half-life [5] [h]
L-methionine α-deamino-γ-mercaptomethane lyase [Naked rMETase] | several-fold less | less than 5 μM | 4 | 4 |  |  |  |  |  |  |  | 
PEG/rMETase 30: rMETase conjugated with MEGC-PEG-5000 at molar ratio PEG/rMETase of 30/1 |  |  | 48 | 8 | 12 | 40 | 2 | 10^−3 (5) |  |  |  | 
PEG/rMETase 60: rMETase conjugated with MEGC-PEG-5000 at molar ratio PEG/rMETase of 60/1 |  |  | 48 | 24 | 18 | 57 | 6 | 10^−3 (5) | 72 | lesser PLP dependence than PEG/rMETase 30 |  | 
PEG/rMETase 120: rMETase conjugated with MEGC-PEG-5000 at molar ratio PEG/rMETase of 120/1 |  |  | 72 | 48 | 38 | 22 | 12 | 10^−3 (5) | 72 | lesser PLP dependence than PEG/rMETase 30 | below 4 μM | 
PEGylated rMETase with M-SPA-PEG: Literature rMETase PEGylated with M-SPA-PEG, comparison for half-life |  |  |  |  |  |  |  |  |  |  |  | 0.667
